Read-outs that look alike come from different tables or passages of the source. *1 amine or outer side, *2 acyl side, *3 side chain or, on linkers, in order; H or OH if unused. Where a SMILES comes first, the peptide text is derived from it. Side-chain parts run from the residue outwards. [ ]: non-standard residue; d: D form. The star is where a group is joined. C20 diacid = O=C(O)CCCCCCCCCCCCCCCCCCC(=O)*; αMePhe(2-F) = C[C@](N)(Cc1ccccc1F)C(=O)O; γGlu = O=C(O)[C@H](CCC(=O)[*:2])N[*:1]; X60 = O=C(C1(c2cccnc2)CCCC1)*; X83 = Cc1ccn(C(C)(C)C(=O)*)n1; NH(3-MeOPh) = COc1cccc(N*)c1; NH(2-ClPh) = Clc1ccccc1N*; AEEA = NCCOCCOCC(=O)O; Aib = CC(C)(N)C(=O)O; CO = O=C([*:1])[*:2]; GABA = NCCCC(=O)O; βAla = NCCC(=O)O
Experiments:
GLP-1 receptor = GLP-1 receptor (Homo sapiens, UniProt P43220); assay: HitHunter cAMP assay, GLP-1 receptor; type: cell-based; conditions: read-out: Emax GLP-1R
GIP receptor = target: T1, GIP receptor (Homo sapiens, UniProt P48546); assay: HitHunter cAMP assay, GIP receptor; type: cell-based; conditions: read-out: Emax GIP-1R
T1 sequence (P48546 22-466): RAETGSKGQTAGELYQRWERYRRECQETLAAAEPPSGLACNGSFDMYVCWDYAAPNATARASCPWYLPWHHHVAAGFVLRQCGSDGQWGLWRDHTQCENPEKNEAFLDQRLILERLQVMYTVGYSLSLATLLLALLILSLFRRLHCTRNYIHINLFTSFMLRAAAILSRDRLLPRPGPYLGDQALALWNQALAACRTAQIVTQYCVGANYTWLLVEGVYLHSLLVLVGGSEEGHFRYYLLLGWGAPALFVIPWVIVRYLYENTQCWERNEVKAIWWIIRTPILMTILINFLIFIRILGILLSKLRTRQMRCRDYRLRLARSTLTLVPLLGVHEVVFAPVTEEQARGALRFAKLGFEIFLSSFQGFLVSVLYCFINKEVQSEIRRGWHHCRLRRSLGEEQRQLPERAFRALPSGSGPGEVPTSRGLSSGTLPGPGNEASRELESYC

[1] = CHO cells, cAMP, normalized to maximum signal from GLP-1 (high) and DMSO (low)
[2] = CHO cells, cAMP, normalized to maximum signal from GIP (high) and DMSO (low)

Chain of GLP-1 receptor (P43220 24-463): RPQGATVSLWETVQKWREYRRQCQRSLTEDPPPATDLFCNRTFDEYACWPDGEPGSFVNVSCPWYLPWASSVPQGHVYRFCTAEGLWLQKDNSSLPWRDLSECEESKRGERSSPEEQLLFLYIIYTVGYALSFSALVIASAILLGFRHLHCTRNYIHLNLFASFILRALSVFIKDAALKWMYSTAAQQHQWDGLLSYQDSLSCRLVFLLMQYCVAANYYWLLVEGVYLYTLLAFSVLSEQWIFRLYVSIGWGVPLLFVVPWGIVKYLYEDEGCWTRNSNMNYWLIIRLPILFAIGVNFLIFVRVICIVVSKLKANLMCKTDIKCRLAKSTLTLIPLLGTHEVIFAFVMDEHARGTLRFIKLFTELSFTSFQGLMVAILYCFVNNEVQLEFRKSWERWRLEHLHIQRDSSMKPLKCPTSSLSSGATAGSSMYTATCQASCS

SMILES	Emax (GLP-1 receptor; [1]) [%]	Emax (GIP receptor; [2]) [%]	Emax (GLP-1 receptor; CHO) [%]	Emax (GIP receptor; CHO) [%]
CC[C@H](C)[C@H](NC(=O)[C@H](CC(C)C)NC(=O)[C@H](Cc1c[nH]c2ccccc12)NC(=O)[C@H](CCC(N)=O)NC(=O)[C@@H](NC(=O)[C@H](Cc1ccccc1)NC(=O)[C@H](C)NC(=O)[C@H](CCCCNC(=O)COCCOCCNC(=O)COCCOCCNC(=O)CC[C@H](NC(=O)CCCCCCCCCCCCCCCCCCC(=O)O)C(=O)O)NC(=O)[C@H](CCC(N)=O)NC(=O)[C@H](C)NC(=O)[C@@H](NC(=O)[C@H](CCCCN)NC(=O)[C@H](CC(=O)O)NC(=O)[C@H](CC(C)C)NC(=O)C(C)(C)NC(=O)[C@@H](NC(=O)[C@H](CO)NC(=O)[C@H](Cc1ccc(O)cc1)NC(=O)[C@H](CC(=O)O)NC(=O)[C@H](CO)NC(=O)[C@@H](NC(=O)[C@](C)(Cc1ccccc1F)NC(=O)[C@@H](NC(=O)CNC(=O)[C@H](CCC(=O)O)NC(=O)CCNC(=O)C1(c2cccnc2)CCCC1)[C@@H](C)O)[C@@H](C)O)[C@@H](C)CC)[C@@H](C)CC)C(C)C)C(=O)N[C@@H](C)C(=O)NCC(N)=O [Compound 226] ({X60-βAla}-EGT[αMePhe(2-F)]TSDYSI[Aib]LDKIAQK([AEEA-AEEA-γGlu-C20 diacid])AFVQWLIAG-NH2; N-terminus and C-terminus assumed)	104	102	–	–
CC[C@H](C)[C@H](NC(=O)[C@H](CC(C)C)NC(=O)[C@H](Cc1c[nH]c2ccccc12)NC(=O)[C@H](CCC(N)=O)NC(=O)[C@@H](NC(=O)[C@H](Cc1ccccc1)NC(=O)[C@H](C)NC(=O)[C@H](CCCCNC(=O)COCCOCCNC(=O)COCCOCCNC(=O)CC[C@H](NC(=O)CCCCCCCCCCCCCCCCCCC(=O)O)C(=O)O)NC(=O)[C@H](CCC(N)=O)NC(=O)[C@H](C)NC(=O)[C@@H](NC(=O)[C@H](CCCNC(=N)N)NC(=O)[C@H](CC(=O)O)NC(=O)[C@H](CC(C)C)NC(=O)C(C)(C)NC(=O)[C@@H](NC(=O)[C@H](CO)NC(=O)[C@H](Cc1ccc(O)cc1)NC(=O)[C@H](CC(=O)O)NC(=O)[C@H](CO)NC(=O)[C@@H](NC(=O)[C@H](Cc1ccccc1)NC(=O)[C@@H](NC(=O)CNC(=O)[C@H](CCC(=O)O)NC(=O)CCNC(=O)C1(c2cccnc2)CCCC1)[C@@H](C)O)[C@@H](C)O)[C@@H](C)CC)[C@@H](C)CC)C(C)C)C(=O)N[C@@H](C)C(=O)NCC(=O)NCC(=O)N1CCC[C@H]1C(=O)N[C@@H](CO)C(=O)N[C@@H](CO)C(=O)NCC(=O)N[C@@H](C)C(=O)N1CCC[C@H]1C(=O)N1CCC[C@H]1C(=O)N1CCC[C@H]1C(=O)N[C@@H](CO)C(N)=O [Compound 243] ({X60-βAla}-EGTFTSDYSI[Aib]LDRIAQK([AEEA-AEEA-γGlu-C20 diacid])AFVQWLIAGGPSSGAPPPS-NH2; C-terminus assumed)	109	110	–	–
CC[C@H](C)[C@H](NC(=O)[C@H](CC(C)C)NC(=O)[C@H](Cc1c[nH]c2ccccc12)NC(=O)[C@H](CCC(N)=O)NC(=O)[C@@H](NC(=O)[C@H](Cc1ccccc1)NC(=O)[C@H](C)NC(=O)[C@H](CCCCNC(=O)COCCOCCNC(=O)COCCOCCNC(=O)CC[C@H](NC(=O)CCCCCCCCCCCCCCCCCCC(=O)O)C(=O)O)NC(=O)[C@H](CCC(N)=O)NC(=O)[C@H](C)NC(=O)[C@@H](NC(=O)[C@H](CCCCN)NC(=O)[C@H](CC(=O)O)NC(=O)[C@H](CC(C)C)NC(=O)C(C)(C)NC(=O)[C@@H](NC(=O)[C@H](CO)NC(=O)[C@H](Cc1ccc(O)cc1)NC(=O)[C@H](CC(=O)O)NC(=O)[C@H](CO)NC(=O)[C@@H](NC(=O)[C@H](Cc1ccccc1)NC(=O)[C@@H](NC(=O)CNC(=O)[C@H](CCC(=O)O)NC(=O)CCCNC(=O)CNC(=O)Nc1cccc(OC)c1)[C@@H](C)O)[C@@H](C)O)[C@@H](C)CC)[C@@H](C)CC)C(C)C)C(=O)N[C@@H](C)C(=O)NCC(=O)NCC(=O)N1CCC[C@H]1C(=O)N[C@@H](CO)C(=O)N[C@@H](CO)C(=O)NCC(=O)N[C@@H](C)C(=O)N1CCC[C@H]1C(=O)N1CCC[C@H]1C(=O)N1CCC[C@H]1C(=O)N[C@@H](CO)C(N)=O [Compound 261] ({NH(3-MeOPh)-CO}-G[GABA]EGTFTSDYSI[Aib]LDKIAQK([AEEA-AEEA-γGlu-C20 diacid])AFVQWLIAGGPSSGAPPPS-NH2; C-terminus assumed)	106	107	–	–
CC[C@H](C)[C@H](NC(=O)[C@H](CC(C)C)NC(=O)[C@H](Cc1c[nH]c2ccccc12)NC(=O)[C@H](CCC(N)=O)NC(=O)[C@@H](NC(=O)[C@H](Cc1ccccc1)NC(=O)[C@H](C)NC(=O)[C@H](CCCCNC(=O)COCCOCCNC(=O)COCCOCCNC(=O)CC[C@H](NC(=O)CCCCCCCCCCCCCCCCCCC(=O)O)C(=O)O)NC(=O)[C@H](CCC(N)=O)NC(=O)[C@H](C)NC(=O)[C@@H](NC(=O)[C@H](CCCCN)NC(=O)[C@H](CC(=O)O)NC(=O)[C@H](CC(C)C)NC(=O)C(C)(C)NC(=O)[C@@H](NC(=O)[C@H](CO)NC(=O)[C@H](Cc1ccc(O)cc1)NC(=O)[C@H](CC(=O)O)NC(=O)[C@H](CO)NC(=O)[C@@H](NC(=O)[C@H](Cc1ccccc1)NC(=O)[C@@H](NC(=O)CNC(=O)[C@H](CCC(=O)O)NC(=O)CCNC(=O)C(C)(C)n1ccc(C)n1)[C@@H](C)O)[C@@H](C)O)[C@@H](C)CC)[C@@H](C)CC)C(C)C)C(=O)N[C@@H](C)C(=O)NCC(=O)NCC(=O)N1CCC[C@H]1C(=O)N[C@@H](CO)C(=O)N[C@@H](CO)C(=O)NCC(=O)N[C@@H](C)C(=O)N1CCC[C@H]1C(=O)N1CCC[C@H]1C(=O)N1CCC[C@H]1C(=O)N[C@@H](CO)C(N)=O [Compound 253] ({X83-βAla}-EGTFTSDYSI[Aib]LDKIAQK([AEEA-AEEA-γGlu-C20 diacid])AFVQWLIAGGPSSGAPPPS-NH2; C-terminus assumed)	94	105	–	–
CC[C@H](C)[C@H](NC(=O)[C@H](CC(C)C)NC(=O)[C@H](Cc1c[nH]c2ccccc12)NC(=O)[C@H](CCC(N)=O)NC(=O)[C@@H](NC(=O)[C@H](Cc1ccccc1)NC(=O)[C@H](C)NC(=O)[C@H](CCCCNC(=O)COCCOCCNC(=O)COCCOCCNC(=O)CC[C@H](NC(=O)CCCCCCCCCCCCCCCCCCC(=O)O)C(=O)O)NC(=O)[C@H](CCC(N)=O)NC(=O)[C@H](C)NC(=O)[C@@H](NC(=O)[C@H](CCCCN)NC(=O)[C@H](CC(=O)O)NC(=O)[C@H](CC(C)C)NC(=O)C(C)(C)NC(=O)[C@@H](NC(=O)[C@H](CO)NC(=O)[C@H](Cc1ccc(O)cc1)NC(=O)[C@H](CC(=O)O)NC(=O)[C@H](CO)NC(=O)[C@@H](NC(=O)[C@H](Cc1ccccc1)NC(=O)[C@@H](NC(=O)CNC(=O)[C@H](CCC(=O)O)NC(=O)CCCNC(=O)CNC(=O)Nc1ccccc1Cl)[C@@H](C)O)[C@@H](C)O)[C@@H](C)CC)[C@@H](C)CC)C(C)C)C(=O)N[C@@H](C)C(=O)NCC(=O)NCC(=O)N1CCC[C@H]1C(=O)N[C@@H](CO)C(=O)N[C@@H](CO)C(=O)NCC(=O)N[C@@H](C)C(=O)N1CCC[C@H]1C(=O)N1CCC[C@H]1C(=O)N1CCC[C@H]1C(=O)N[C@@H](CO)C(N)=O [Compound 259] ({NH(2-ClPh)-CO}-G[GABA]EGTFTSDYSI[Aib]LDKIAQK([AEEA-AEEA-γGlu-C20 diacid])AFVQWLIAGGPSSGAPPPS-NH2; C-terminus assumed)	–	–	103	103
CC[C@H](C)[C@H](NC(=O)[C@H](CC(C)C)NC(=O)[C@H](Cc1c[nH]c2ccccc12)NC(=O)[C@H](CCC(N)=O)NC(=O)[C@@H](NC(=O)[C@H](Cc1ccccc1)NC(=O)[C@H](C)NC(=O)[C@H](CCCCNC(=O)COCCOCCNC(=O)COCCOCCNC(=O)CC[C@H](NC(=O)CCCCCCCCCCCCCCCCCCC(=O)O)C(=O)O)NC(=O)[C@H](CCC(N)=O)NC(=O)[C@H](C)NC(=O)[C@@H](NC(=O)[C@H](CCCCN)NC(=O)[C@H](CC(=O)O)NC(=O)[C@H](CC(C)C)NC(=O)C(C)(C)NC(=O)[C@@H](NC(=O)[C@H](CO)NC(=O)[C@H](Cc1ccc(O)cc1)NC(=O)[C@H](CC(=O)O)NC(=O)[C@H](CO)NC(=O)[C@@H](NC(=O)[C@H](Cc1ccccc1)NC(=O)[C@@H](NC(=O)CNC(=O)[C@H](CCC(=O)O)NC(=O)CCNC(=O)C1(c2cccnc2)CCCC1)[C@@H](C)O)[C@@H](C)O)[C@@H](C)CC)[C@@H](C)CC)C(C)C)C(=O)N[C@@H](C)C(=O)NCC(N)=O [Compound 227] ({X60-βAla}-EGTFTSDYSI[Aib]LDKIAQK([AEEA-AEEA-γGlu-C20 diacid])AFVQWLIAG-NH2; N-terminus and C-terminus assumed)	102	112	–	–

— patent US12281149B2, “Modulators of G-protein coupled receptors” (priority 2021, dated 2025)
